Results: a melting point compilation (Tetko et al.; mined from patent text by program, amines drawn as free bases though some values may be those of a salt)

| SMILES | melting point |
| --- | --- |
| CC(C)N(O)C(=O)CCC1C=CC2=C(Cc3ccccc3CO2)C1=O (stereo unspecified) | 118 °C |
| CN1CCN(c2nc3sc4c(NCc5cccnc5)ncnc4c3c3c2CCC(C)(C)C3)CC1 | 210 to 212 °C |
| CSCC12CCC(=CF)C=C1CCC1C3CCC(=O)C3(C)CCC12 (stereo unspecified) | 146 to 147 °C |
| CC(O)c1cc2c(s1)C(=O)c1ccsc1C2=O (stereo unspecified) | 166 to 168 °C |
| Nc1nc2c(sc(=O)n2CC(O)CO)c(=O)[nH]1 (stereo unspecified) | 248 to 254 °C |
| CCCOc1ccnc2[nH]ccc12 | 189 to 191 °C |
| C/C=C/C(=O)N1C(=O)OC(C)(C)[C@H]1c1ccccc1 | 104 °C |
| CCOC(=O)c1cc(=O)c2cc3c(c(CC(O)CO)c2o1)CCCC3 (stereo unspecified) | 142 to 144 °C |
| CC(=O)N1OC(C)C(=S)NC1c1ccccc1C (stereo unspecified) | 167 to 170 °C |
| O=C(CCCCCN1CCN(c2cccc3c2CCC3)CC1)N1Cc2ccccc2C1 | 112 °C |
| COC(=O)c1[nH]nc2c1C(C)Cc1cc(OC)ccc1-2 (stereo unspecified) | 163 °C |
| CCCCCCOc1nccc(C(N)=O)c1Cl | 75 to 77 °C |
| Cc1oncc1C(=O)c1ccc(C(F)(F)F)cc1[N+](=O)[O-] | 85 to 86 °C |
| COC(=O)c1c(C)c(O)cc(OC)c1Br | 105 to 110 °C |
| Cc1nc(-n2cccc(C(=O)Nc3ccccc3)c2=O)sc1C(=O)NCc1ccccc1 | 225 to 227 °C |
| Cc1ccc2c3c(ccc2n1)OCC(CN1CC=C(c2cc4ccccc4s2)CC1)O3 (stereo unspecified) | 174 to 176 °C |

| SMILES | melting point |
| --- | --- |
| O=C(O)CC1CCC2(CC1)OCCO2 | 110 to 113 °C |
| C=CC(c1ccc(C(C)C)cc1)c1c(C)c(NC=O)c(C)c(C)c1O (stereo unspecified) | 170 to 171 °C |
| C=CCNC(=O)c1c(O)c2ccc(Cl)cc2n(C)c1=N | 212 to 214 °C |
| CCOC(=O)Cn1nc2ccc(OCCCN3CCC(OC(c4ccccc4)c4ccccc4)CC3)nn2c1=O | 124 to 125 °C |
| CCOC(=O)c1cccc(NC(=O)N[C@@H]2N=C(c3ccccc3)c3ccccc3N(C)C2=O)c1 | 140 to 142 °C |
| NC(=O)c1cn(CCBr)nc1[N+](=O)[O-] | 135 to 137 °C |
| CC1(C)CCCC(N=[N+]=[N-])C(=O)N1 (stereo unspecified) | 98 to 100 °C |
| CCOC(=O)C(NC(=O)c1ccccc1Cl)(c1nc(OC)cc(OC)n1)C(C)C (stereo unspecified) | 94 to 95 °C |
| CCC(C)(C)N1CCN(C(=O)Nc2ccc3[nH]c(C(=O)N4CCN(c5ncccc5NC(C)C)CC4)cc3c2)CC1 | 240 to 242 °C |
| O=[N+]([O-])N=C1NCCCN1CC1CCOC1 (stereo unspecified) | 87.5 to 90.8 °C |
| O=C(O)c1cccc(S(=O)(=O)CCO)c1[N+](=O)[O-] | 178 to 181 °C |
| NC(=O)CNC(=O)CN1CCCC1=O | 147 to 148 °C |
| OC(c1ccncc1)(c1ccc(F)c(F)c1)c1ccc(F)c(F)c1 | 147 to 149 °C |
| CCCCCC(=O)OCc1nccc(Oc2ccc3c(C(=O)OCC)csc3c2)n1 | 51 °C |
| COc1ccc(C2CNC(=O)N2C)cc1NC1CC2CCC1C2 (stereo unspecified) | 171 to 174 °C |
| O=C(O)CCC(=O)OC1CCCN(C(=O)Cn2c(=O)sc3ccc(Cl)cc32)C1 (stereo unspecified) | 131 to 133 °C |

The remaining lines, values ahead:

| melting point | SMILES |
| --- | --- |
| 230 to 232 °C | Cc1nc2ccc(CN(CCO)c3ccc(C(=O)NCc4cccc([N+](=O)[O-])c4)cc3)cc2c(=O)[nH]1 |
| > 310 °C | Cn1c2ccccc2c2c3ccc(Cl)cc3c(=O)[nH]c21 |
| 148 to 150 °C | CCCC(=O)c1cnc2c(CO)cccc2c1Nc1ccccc1C |
| > 260 °C | Cc1cccnc1NC(=O)Nc1cccc2c1C1CC(=O)CCN1C2=O (stereo unspecified) |
| 174 °C | COc1cc(CCCN2CCc3cc(OC)c(OC)cc3C2)ccc1NC(=O)c1cccc2c(=O)c3cccc(C)c3[nH]c12 |
| 222 to 224 °C | O=C1C=C(c2ccc(O)cc2)S(=O)(=O)c2ccccc21 |
| 159 to 160 °C | CCCc1nc2c(N)nc3ccccc3c2n1CCOCCCS(=O)(=O)c1ccccc1C |
| 100 to 112 °C | CCc1ncnc(NC(CC)c2ccc(Oc3ncccn3)cc2)c1Cl (stereo unspecified) |
| 228 °C | NC(=O)c1cc2n(c1)CCc1ccccc1C2=O |
| 145 to 146 °C | CN(C)c1ncc2c(=O)n(Cc3ccccn3)sc2n1 |
| 174 to 175 °C | COC(=O)c1cc(-c2ccccc2)c(=O)n2ncc3ccccc3c12 |
| > 260 °C | Cc1nc2c(c(=O)[nH]1)-c1cc(S(=O)(=O)Nc3ccc(F)cc3)ccc1CC2 |
| 185 °C | Cc1c(OCc2ccccn2)nn2c(-c3ccccc3)nnc2c1C |
| 166 to 167 °C | N#Cc1cc(C(F)(F)F)cc(Cl)c1N1CN(Br)C(C(F)(F)F)=CC1=O |
| < 50 °C | CC(=O)Nc1cccc2c1C(C#N)C2 (stereo unspecified) |
| 90.2 °C | Cc1c(C(F)(F)F)cnn(-c2cc(OCC3CCCCC3)c(Cl)cc2F)c1=O |
| 78 to 80 °C | NC(=O)C1=CC=CN(CCc2ccc(Cl)s2)C1Oc1ccc(F)cc1 (stereo unspecified) |
| 56 to 58 °C | C=C1CCCc2ccc(OCc3ccc4ccccc4n3)cc21 |
| 165 to 168 °C | COC(=O)Nc1ccc(OCc2nc3cc(F)ccc3s2)cc1C |
| 185 to 188 °C | CCOC(=O)c1c(C(C)(C)O)nc(SCC)n1Cc1ccc(-c2ccccc2-c2nnn[nH]2)cc1 |

| melting point | SMILES |
| --- | --- |
| > 300 °C | N#Cc1cccc(-c2ccc3c(Cl)cnc(Cl)c3c2)c1 |
| 210 to 212 °C | COc1ccc(C=CC(=O)c2cc(Oc3ccccc3)c(NS(C)(=O)=O)cc2O)cc1OC |
| 211 to 213 °C | CCOC(=O)c1nn(-c2ccc(NC)cc2)c(=O)c2c(N)scc12 |
| 81 to 82 °C | CC(=O)CSC1=CC(=O)CC(c2ccccc2Cl)C1 (stereo unspecified) |
| 212 °C | O=C(O)CON=c1c2nccc3cccc(c32)n2cccc12 |
| 135 to 136 °C | CS(=O)c1nnc(-c2ccc3ncn(-c4ccc(OC(F)F)cc4)c3c2)o1 (stereo unspecified) |
| 227 to 229 °C | O=C(Nc1nncs1)c1sc(Nc2ccccc2)c2c1CCc1cnoc1-2 |
| 231 to 232 °C | Cc1nc(-c2cnn(-c3c(Cl)cc(C(F)(F)F)cc3Cl)n2)[nH]c1[N+](=O)[O-] |
| 129 °C | Clc1ccc(-c2nnco2)cc1 |
| 195 to 198 °C | CS(=O)(=O)c1ccc(N2CC(O)(C(F)(F)F)N=C2c2ccccn2)cc1 (stereo unspecified) |
| 100 °C | CNC(=O)[C@@H]1C[C@@H](OCc2ccccc2)CN1S(=O)(=O)c1ccc(Cl)c(COc2cccc3c(-n4ccnc4)cc(C)nc23)c1Cl |
| 143 to 145 °C | CCC(Oc1ccc2oc3cc(Cl)ccc3c2c1)C(=O)O (stereo unspecified) |
| 64 to 65 °C | COCc1cc2ccccc2oc1=Nc1ccccc1 |
| 162 to 165 °C | CC(C)(C)c1cc(CNC(=O)Nc2cccc(C(F)(F)F)c2)nn1-c1ccc(S(C)(=O)=O)cc1 |
| 113 to 114 °C | Cn1nc(-c2c(F)cccc2Cl)nc1-c1ccc(COc2ccc(C(F)(F)F)cc2Cl)c(Cl)c1 |
| 189 to 191 °C | C#CCN(c1ccc(C(=O)NC(CCc2nnn[nH]2)C(=O)O)nc1)C1CCc2cc3nc(C)[nH]c(=O)c3cc21 (mixture of isomers) |
| 179 to 183 °C | COc1ccccc1[C@@H]1O[C@@H](CC(=O)O)C(=O)N(CC(C)(C)C)c2ccc(Cl)cc21 |
| 103 °C | c1ccc(-c2cc(N3CCCCC3)c(-c3ccccc3)o2)cc1 |
| 135 to 140 °C | COC(=O)C1=C(COCCn2c(C)nc(C)c2C)NC(C)=C(C(=O)Nc2ccccc2)C1c1ccccc1Cl (stereo unspecified) |
